This note sets out measurements from patent US11344627B2, “Dendrimer-exosome hybrid nanoparticles as a delivery platform” (WISCONSIN ALUMNI RESEARCH FOUNDATION, priority 2017, dated 2022).

Entries after “also recorded” stand apart in the source; their conditions may differ.

For the experiment, the system named is HUVEC cells. Put plainly: Immunostaining of P-selectin and VCAM-1 on endothelial cells upon TNF-α treatment. Format: cell-based, human. As to conditions: TNF-α 20 ng/mL, 4 hrs, confocal. How it is done:
Immunostaining: To determine P-selectin and VCAM-1 expression on endothelial cells upon TNF-α-treatment, HUVEC cells were cultured on a cover glass and treated with 20 ng/mL of TNF-α at 37° C. for 4 hrs. The cells were fixed with 4% paraformaldehyde and blocked using a 5% BSA solution in PBS for 30 min. The cells were then incubated with primary antibodies against P-selectin or VCAM-1 for 1 hr at room temperature. The cells were incubated with fluorescence-labeled secondary antibodies for 1 hr at room temperature. The cells were washed, mounted with a mounting medium, and observed using a confocal microscope (Zeiss, Dublin, Calif.).
Potential advantages of using hMSC-derived exosomes would include the utilization of the homing properties of hMSCs to inflamed endothelia that are frequently found in cancerous regions. […] Human umbilical vein endothelial cells (HUVEC) were used to determine if the exosomes could potentially interact with the cells upon activation using TNF-α. TNF-α is known to induce expression of vascular cell adhesion molecule-1 (VCAM-1) and P-selectin that are directly involved in the hMSC binding to endothelial layers. The expression of VLA-4 and CD162 that are ligands binding to VCAM-1 and P-selectin, respectively, from the exosomes was confirmed using western blotting (FIG. 9).

TNF-α: the P-selectin expression result was “overexpress; also recorded: increased” and the VCAM-1 expression result is listed as “overexpress; also recorded: increased”.
